Results from patent publication US6951856B2, “Arylethene-sulfonamides” (Actelion Pharmaceuticals Ltd., priority 2000, dated 2005).
Where two headings read alike, the source gives them in different places.

Legend:
[1] = target: T1, human recombinant ETB receptors (Homo sapiens, UniProt P24530); test: Inhibition of [125I]ET-1 binding to membranes from CHO cells carrying human ETB receptors
T1 construct: expressed in transfected cells; host or cells: CHO cells (microsomal membranes)
T1 sequence (P24530 27-442): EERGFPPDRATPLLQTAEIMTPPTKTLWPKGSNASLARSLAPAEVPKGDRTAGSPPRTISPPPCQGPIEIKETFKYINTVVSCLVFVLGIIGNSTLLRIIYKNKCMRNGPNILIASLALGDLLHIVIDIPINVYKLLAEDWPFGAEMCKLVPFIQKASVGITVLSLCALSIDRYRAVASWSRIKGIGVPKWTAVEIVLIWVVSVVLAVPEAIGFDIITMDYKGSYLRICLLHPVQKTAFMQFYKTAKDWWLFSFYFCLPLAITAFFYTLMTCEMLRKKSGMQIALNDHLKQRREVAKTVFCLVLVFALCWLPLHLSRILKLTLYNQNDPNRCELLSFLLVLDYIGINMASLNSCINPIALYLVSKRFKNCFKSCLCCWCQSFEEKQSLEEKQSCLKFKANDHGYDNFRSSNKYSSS
Description: (§1) 1) Inhibition of Endothelin Binding to Membranes from CHO Cells Carrying Human ET Receptors
(§2) For competition binding studies, membranes of CHO cells expressing human recombinant ETA or ETB receptors were used. Microsomal membranes from recombinant CHO cells were prepared and the binding assay made as previously described (Breu V., et al, FEBS Lett 1993; 334:210).
(§3) The assay was performed in 200 uL 50 mM Tris/HCl buffer, pH 7.4, including 25 mM MnCl2, 1 mM EDTA and 0.5% (w/v) BSA in polypropylene microtiter plates. […] After 2 h, the membranes were filtered on filterplates containing GF/C filters (Unifilterplates from Canberra Packard S.A. Zürich, Switzerland). To each well, 50 uL of scintillation cocktail was added (MicroScint 20, Canberra Packard S.A. Zürich, Switzerland) and the filter plates counted in a microplate counter (TopCount, Canberra Packard S.A. Zürich, Switzerland).
(§4) All the test compounds were dissolved, diluted and added in DMSO.

[2] = target: T2, human recombinant ETA receptors (Homo sapiens, UniProt P25101); test: Inhibition of [125I]ET-1 binding to membranes from CHO cells carrying human ETA receptors; details: CHO cell membranes, 8 pM [125I]ET-1, 2 h at 20° C.
T2 construct: expressed in transfected cells; host or cells: CHO cells (microsomal membranes)
T2 sequence (P25101 21-427): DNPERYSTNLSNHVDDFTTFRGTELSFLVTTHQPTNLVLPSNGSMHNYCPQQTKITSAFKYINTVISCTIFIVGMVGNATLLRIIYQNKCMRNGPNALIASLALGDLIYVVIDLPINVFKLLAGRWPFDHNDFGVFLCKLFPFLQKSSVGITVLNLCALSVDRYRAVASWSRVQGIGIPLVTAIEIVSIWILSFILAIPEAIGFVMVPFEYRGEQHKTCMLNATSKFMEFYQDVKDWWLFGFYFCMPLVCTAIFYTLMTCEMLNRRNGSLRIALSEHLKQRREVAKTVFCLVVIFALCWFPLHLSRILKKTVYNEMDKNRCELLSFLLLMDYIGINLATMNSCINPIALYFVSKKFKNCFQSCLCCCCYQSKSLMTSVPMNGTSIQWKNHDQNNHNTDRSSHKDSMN
Description: as §1, §2, §3, §4

Row | Compound | IC50 [1] | IC50 [2] | IC50 ([1]; CHO cell membranes, 8 pM [125I]ET-1, 2 h at 20° C.)
1 | COc1ccc(-c2c(NS(=O)(=O)/C=C/c3ccccc3)ncnc2OCCOc2ncc(Cl)cn2)cc1 [Example 120] | 1630 nM | 38.7 nM | 
2 | COc1ccc(-c2c(NS(=O)(=O)/C=C/c3ccccc3)ncnc2OCCOc2ccc(Br)cn2)cc1 [Example 124] | 309 nM | 33.2 nM | 
3 | Cc1ccc(-c2c(NS(=O)(=O)/C=C/c3ccccc3)nc(-c3cnccn3)nc2OCCOc2ncc(Br)cn2)cc1 [Example 125] | 2700 nM | 6.7 nM | 
4 | COc1cnc(OCCOc2nc(-c3cnccn3)nc(NS(=O)(=O)/C=C/c3ccccc3)c2-c2ccc(C)cc2)nc1 [Example 126] | 3640 nM | 9 nM | 
5 | Cc1ccc(-c2c(NS(=O)(=O)/C=C/c3ccccc3)nc(N3CCOCC3)nc2OCCOc2ncc(Br)cn2)cc1 [Example 127] | 2750 nM | 14.2 nM | 
6 | Cc1ccc(-c2c(NS(=O)(=O)/C=C/c3ccccc3)nc(C3CC3)nc2OCCOc2ncc(Br)cn2)cc1 [Example 132] | 1660 nM | 5.7 nM | 
7 | COc1cnc(OCCOc2nc(C3CC3)nc(NS(=O)(=O)/C=C/c3ccccc3)c2-c2ccc(C)cc2)nc1 [Example 133] | 1770 nM | 8.2 nM | 
8 | Cc1ccc(-c2c(NS(=O)(=O)/C=C/c3ccccc3)nc(C3CC3)nc2OCCOc2ncc(Cl)cn2)cc1 [Example 134] | 4890 nM | 6.3 nM | 
9 | Cc1ccc(-c2c(NS(=O)(=O)/C=C/c3ccccc3)nc(C)nc2OCCOc2ncc(Br)cn2)cc1 [Example 138] | 1340 nM | 4.4 nM | 
10 | COc1cnc(OCCOc2nc(C)nc(NS(=O)(=O)/C=C/c3ccccc3)c2-c2ccc(C)cc2)nc1 [Example 139] | 1690 nM | 9.8 nM | 
11 | COc1cnc(OCCOc2nc(-c3ncccn3)nc(NS(=O)(=O)/C=C/c3ccccc3)c2-c2ccc(C)cc2)nc1 [Example 144] | 3060 nM | 10 nM | 
12 | Cc1ccc(-c2c(NS(=O)(=O)/C=C/c3cccs3)nc(-c3ncccn3)nc2OCCOc2ncc(Br)cn2)cc1 [Example 145] |  | 9.1 nM | 2380 nM
13 | COc1ccccc1Oc1c(NS(=O)(=O)/C=C/c2cccs2)nc(-c2ncccn2)nc1OCCOc1ncc(Br)cn1 [Example 157] | 4500 nM | 21.7 nM | 
14 | COc1ccccc1Oc1c(NS(=O)(=O)/C=C/c2cccs2)nc(-c2ncccn2)nc1OCCOc1ncccn1 [Example 158] | 1260 nM | 12.1 nM | 
15 | COc1ccccc1Oc1c(NS(=O)(=O)/C=C/c2ccccc2)nc(-c2ccncc2)nc1OCCOc1ncc(Br)cn1 [Example 159] | 2280 nM | 7.3 nM | 
16 | COc1cnc(OCCOc2nc(-c3ccncc3)nc(NS(=O)(=O)/C=C/c3ccccc3)c2Oc2ccccc2OC)nc1 [Example 160] | 757 nM | 12.9 nM | 
17 | COc1ccccc1Oc1c(NS(=O)(=O)/C=C/c2ccccc2)nc(-c2ccncc2)nc1OCCOc1ncc(Cl)cn1 [Example 164] | 1560 nM | 10 nM | 
18 | COc1ccccc1Oc1c(NS(=O)(=O)/C(C)=C/c2ccccc2)nc(-c2ccncc2)nc1OCCOc1ncc(Br)cn1 [Example 175] | 499 nM | 4.7 nM | 
19 | COc1ccccc1Oc1c(NS(=O)(=O)/C(C)=C/c2ccccc2)nc(-c2ccncc2)nc1OCCOc1ncc(Cl)cn1 [Example 176] | 1080 nM | 4.1 nM | 

Row | Compound | IC50 [1] | IC50 [2] | IC50 ([1]; CHO cell membranes, 8 pM [125I]ET-1, 2 h at 20° C.)
20 | COc1cnc(OCCOc2nc(-c3ccncc3)nc(NS(=O)(=O)/C(C)=C/c3ccccc3)c2Oc2ccccc2OC)nc1 [Example 177] | 363 nM | 5.5 nM | 
21 | COc1ccccc1Oc1c(NS(=O)(=O)/C=C/c2ccsc2)nc(-c2ccncc2)nc1OCCOc1ncc(Br)cn1 [Example 178] | 671 nM | 5 nM | 
22 | COc1cnc(OCCOc2nc(-c3ccncc3)nc(NS(=O)(=O)/C=C/c3ccsc3)c2Oc2ccccc2OC)nc1 [Example 179] | 699 nM | 9 nM | 
23 | COc1ccccc1Oc1c(NS(=O)(=O)/C=C/c2ccsc2)nc(-c2ccncc2)nc1OCCOc1ncccn1 [Example 180] | 1030 nM | 7.4 nM | 
24 | COc1ccccc1Oc1c(NS(=O)(=O)/C=C/c2ccsc2)nc(-c2ccncc2)nc1OCCOc1ncc(Cl)cn1 [Example 181] | 1980 nM | 7.1 nM | 
25 | COc1ccccc1Oc1c(NS(=O)(=O)/C=C/c2ccccc2)nc(-c2cnccn2)nc1OCCOc1ncc(Br)cn1 [Example 182] | 1400 nM | 16.7 nM | 
26 | COc1cnc(OCCOc2nc(N3CCOCC3)nc(NS(=O)(=O)/C=C/c3ccccc3)c2Oc2ccccc2OC)nc1 [Example 197] | 220 nM | 5 nM | 
27 | COc1ccccc1Oc1c(NS(=O)(=O)/C=C/c2ccccc2)nc(N2CCOCC2)nc1OCCOc1ncc(C(F)(F)F)cn1 [Example 198] | 595 nM | 7.9 nM | 
28 | COc1ccccc1Oc1c(NS(=O)(=O)/C(C)=C/c2ccccc2)nc(N2CCOCC2)nc1OCCOc1ncc(Br)cn1 [Example 202] | 349 nM | 2.4 nM | 
29 | COc1cnc(OCCOc2nc(N3CCOCC3)nc(NS(=O)(=O)/C(C)=C/c3ccccc3)c2Oc2ccccc2OC)nc1 [Example 203] | 249 nM | 3.4 nM | 
30 | COc1ccccc1Oc1c(NS(=O)(=O)/C=C/c2ccccc2)nc(N2CCOCC2)nc1OCCOc1ncc(SC)cn1 [Example 204] | 138 nM | 3.3 nM | 
31 | COc1ccccc1Oc1c(NS(=O)(=O)/C=C/c2cccs2)ncnc1OCCOc1ncc(Br)cn1 [Example 214] | 3940 nM | 39 nM | 
32 | COc1ccccc1Oc1c(NS(=O)(=O)/C=C/c2ccccc2)ncnc1OCCOc1ncc(SC)cn1 [Example 222] | 506 nM | 41 nM | 
33 | COc1ccc(Cl)c(Oc2c(NS(=O)(=O)/C=C/c3ccccc3)ncnc2OCCOc2ncc(Br)cn2)c1 [Example 225] | 830 nM | 5.2 nM | 
34 | COc1cnc(OCCOc2ncnc(NS(=O)(=O)/C=C/c3ccccc3)c2Oc2cc(OC)ccc2Cl)nc1 [Example 226] | 1550 nM | 15.4 nM | 
35 | COc1ccc(Cl)c(Oc2c(NS(=O)(=O)/C=C/c3ccccc3)nc(-c3ccncc3)nc2OCCOc2ncc(Br)cn2)c1 [Example 228] | 3910 nM | 14.5 nM | 
36 | COc1cccc(Oc2c(NS(=O)(=O)/C=C/c3ccccc3)ncnc2OCCOc2ncc(Br)cn2)c1 [Example 230] | 937 nM | 12.3 nM | 
37 | COc1cccc(Oc2c(NS(=O)(=O)/C=C/c3ccccc3)ncnc2OCCOc2ncc(SC)cn2)c1 [Example 232] | 290 nM | 10 nM | 
